We go through five molecules from patent US9605013B2, “Derivatives of hemin with antibacterial and antiviral activity” (OBSCHESTVO S OGRANICHENNOI OTVETSTVENNOSTIYU …, priority 2011, dated 2017).

Common to all, as to assay type: cell-based
In assay [1] the test system is Micrococcus luteus BKM Ac-2230. In words: Antibacterial activity, serial dilutions in liquid MH medium. How it is done: (§1) The antibacterial activity of the compounds was determined against strains of gram-positive bacteria such as Staphylococcus aureus 209P, Enterococcus faecalis BKM B-871, Micrococcus luteus BKM Ac-2230, Bacillus subtilis BKM B-501, and gram-negative bacteria such as Pseudomonas aeruginosa PAO1 and Escherichia coli KM MGU C-600. BKM strains were acquired from the All-Russia Collection of Microorganisms at the Institute for Biochemistry and Physiology of Microorganisms, Russian Academy of Sciences. Strain Staphylococcus aureus 209P was acquired from the Collection of Microorganisms at the Department of microbiology of the Faculty of Biology of Lomonosov Moscow State University, and Pseudomonas aeruginosa PAO1 was acquired from the Collection of Microorganisms at the Institute of Bioorganic Chemistry of the Russian Academy of Sciences.
(§2) The main parameters characterizing the antibacterial activity are the minimal inhibitory concentration (MIC) and minimal bactericidal concentration (MBC). […] MBC is the least concentration that causes the death of all cells.
(§3) MIC was quantified by inhibiting culture growth in a liquid medium with serial dilutions of compounds using a modified procedure [Amsterdam, D., 1966. “Susceptibility testing of antimicrobials in liquid media,” pp. 52-111. In Loman, V., ed. Antibiotics in laboratory medicine, 4th ed. Williams and Wilkins, Baltimore].
(§4) Bacteria were cultured and tested on an MH liquid medium (Mueller-Hinton medium: a dry extract of beef broth, 4 g/L; starch, 1.5 g/L; casein hydrolyzate, 17.5 g/L; Sigma-Fluka Catalog No. 70192) at 37° C., 100% humidity, and under stirring. Cultures (within 4 to 7 passages after thawing) in the exponential growth phase were used for tests.
(§5) All tested compounds absorb light at 595 nm, a wavelength used for evaluating bacterial culture growth. Therefore, a correction for absorption was applied in estimating the optical density of bacterial suspensions for each compound with account for its concentration in the well. Bacterial growth inhibition (GI) as percentage after 20 hours of incubating cells with compounds was derived from the optical density (A) measured in every well at a wavelength of 595 nm using the equation: GIi=[(Act−Ac0)−(Ait−Ai0)]×100/(Act−Ac0), (1) wherein the subscripts have the following meanings: i denotes the well number, c denotes a control well with bacteria whereto the tested compound is not inserted, 0 refers to the measurement taken immediately once the tested compound was inserted to the well, and t refers to the measurement taken 20 hours after the compound was inserted.
(§6) The protocol for the determination of experimental antibacterial activity of the tested compounds was as follows. A cryovial with the test strain culture in a medium with 7% DMSO stored in liquid nitrogen, was rapidly defrosted, and 1.5 mL of the fresh MH medium was inoculated with 100 μL of the cell suspension. Cells were grown for one day at 37° C. and stirred on an orbital shaker at 150 rpm. The morphologic features of the strain and the absence of contamination with foreign bacteria were verified by: (a) inoculation on an agarized (15 g/L agar) MH medium and observation of the shape and color of the grown colonies and (b) examination of characteristic morphologic features under a microscope (Mikmed-2, LOMO, Russia) equipped with a 40× objective lens. Further, the bacteria were cultured in 1 mL of the liquid MH medium at 37° C. under stirring. The cells were reseeded every day. Cell cultures were used in tests starting with 3rd reseeding and ending with 6th one.
(§7) For testing, 5 μL of a bacterial suspension in the stationary growth phase was transferred to 1 mL of a sterile MH medium and incubated until the exponential growth phase was attained (3 to 5 h, 37° C., stirring at 150 rpm). To estimate the microorganism concentration, the optical density (A) of the resulting bacterial culture was measured at a wavelength of 595 nm. […]

Assay [2] has as its system Bacillus subtilis BKM B-501. The assay is described as above. Conditions: MH medium, 20 h, 37° C., 100% growth inhibition. How it is done:
as §1, §2, §3, §4, §5, §6, §7

Assay [3] deals with Staphylococcus aureus No. 5 (MRSA). In words: Antibacterial specific activity, twofold dilutions, visual growth evaluation. To be noted: St. aur No. 5 MRSA; 36° C., 24 hours. The method, then: (§8) The specific activity of compounds also was determined against bacteria strains such as Staphylococcus aureus No. 25923 ATCC (American Type Culture Collection); Staphylococcus aureus No. 100 KC; Staphylococcus epidermidis No. 533; Enterococcus faecalis No. 559; Enterococcus faecium No. 569, Staphylococcus aureus No. 5 (MRSA), Staphylococcus aureus No. 3797 (MRSA). Staphylococcus aureus was cultured on the Trypticase Soy Agar (BBL) commercially available dry medium. Enterococcus faecalis was cultured on the Columbia Agar (BBL) commercially available dry medium. These media were sterilized by autoclaving at 121° C. for 15 min. Bacterial inoculum was constant and was 5×10^5 CFU/ml (10^5 CFU/0.2 ml). For water-soluble compounds, wells from 2nd through 8th were added with the solvent (water) in an amount of 15 μL per well, then the 1st well was added with 30 μL of the stock solution of the tested compound in […] with a concentration of […], and the concentration was adjusted to 0.007×10^3 M by serial twofold dilutions. A 10-μL portion was taken from every well, and 190 μL of the bacterial culture (10^5 CFU) was added per well. For DMSO-soluble compounds, wells from 2nd through 8th were added with the solvent (DMSO) in an amount of 10 μL per well, then the 1st well was added with 20 μL of the stock solution of the tested compound in […] with a concentration of […], and the concentration was adjusted to 0.039×10^3 M by serial twofold dilutions. A 2-μL portion was taken from each well, and 198 μL of the bacterial culture (10^5 CFU) was added per well.
(§9) The control comprised wells free of tested compounds (culture growth control). In addition, purity control of nutritional media and solvents was used. Plates were incubated in a thermostat at 36° C. for 24 hours.
(§10) Culture growth was evaluated visually by comparison of how microorganisms grew in the presence of tested compounds and in the absence of them. MIC was set equal to the last dilution of a tested agent which suppressed bacterial culture growth.

Assay [4] concerns Staphylococcus aureus No. 3797 (MRSA). Described as above. Conditions: St. aur No. 3797 MRSA; 36° C., 24 hours. How it is done: as §8, §9, §10
Assay [5] relates to Staphylococcus aureus No. 25923 ATCC. Described as above. To be noted: S. aureus 25923; 36° C., 24 hours. The method, then:
as §8, §9, §10

In assay [6] the test system is Enterococcus faecalis No. 559. Described as above. To be noted: E. faecalis 559; 36° C., 24 hours. How it is done: as §8, §9, §10
Assay [7] has as its system Staphylococcus aureus No. 100 KC. The description is as above. Conditions: S. aureus 100 KC; 36° C., 24 hours. The method, then: as §8, §9, §10
Assay [8] relates to Vancomycin-resistant Enterococcus faecium 569. The description is as above. Conditions: Vancomycin-resistant E. faecium 569; 36° C., 24 hours. The method, then:
as §8, §9, §10

The next assay deals with Escherichia coli 4300. The description is as above. To be noted: E. coli 4300; 36° C., 24 hours. The method, then:
[Worded in the source for another organism; this organism is reported under the same test.] as §8, §9, §10

Assay [9] relates to Staphylococcus epidermidis No. 533. The assay is described as above. To be noted: S. epidermis 533; 36° C., 24 hours. How it is done: as §8, §9, §10
Assay [10] relates to Herpes Simplex Virus type 2 strain G (No. VR-734 ATCC). Kind of assay: Antiviral activity, virus cytopathogenic action in Vero cells. Details: key: 0: CPA (cytopathogenic action) is not detected; 1: up to 25% virus-infected monolayer; from 25% to 50%; 3: from 50% to 75%; 4: from 75% to 100%. Conditions: 48 hours. The method, then: (§11) […] used in the study were used Herpes Simplex Virus type 1 (the Collection of Microorganisms at the Scientific Research Institute of Virology, strain EC), Herpes Simplex Virus type 2 strain G (No. VR-734 ATCC), and human cytomegalovirus strain AD169 (No. VR-538 ATCC). Herpes Simplex viruses type 1 and type 2 were cultured in Vero cells. The cells were incubated in MEM Eagle growth medium (MEM, BioloT, St-Petersburg, 1.3.3) supplemented with 10% fetal bovine serum (BioloT, St-Petersburg, 1.3.12) in Sanyo MCO-15AC gas-flow thermostat (37° C., 5% CO2) (Tokyo, Japan). A seed dose was 2×10^5 cells/ml in the starting inoculum or 2×10^4 cells/well. Herpes Simplex viruses were cultured under the same conditions in the MEM medium without serum (maintenance medium). Starting viral titers were 10^7 TCID50/ml.
(§12) For DMSO-soluble preparations, stock solutions were prepared in a concentration of 10 mM in DMSO. For water-soluble preparations, a stock solution prepared had the same concentration in the MEM medium (Minimal Essential Medium) for cell cultures. To control cytotoxicity (see below), the stock solution was diluted in the medium to a concentration of 100 μM and ten-fold serial dilutions of the preparations were made in the MEM medium (for DMSO-soluble compounds—in the MEM medium comprising 3% DMSO). The following concentrations of the preparations were used in the study of […]: if toxicity was not found, the concentrations of 100 μM preparations were 100, 10 and 1 μM; if toxicity was detected, the concentrations of 100 μM preparations were 10, 1, and 0.1 μM. Acyclovir (10 μg/ml) was used for Herpes Simplex viruses of both types as a reference preparation to control the viral model validity.
(§13) To study antiviral activity, plate wells with a cell monolayer were added with the preparations in an amount of 0.1 ml/well. To compensate a reduction in the concentration of the preparations, which takes place in the following addition of viruses, twofold concentrations of compounds (i.e. 200, 20 and 2 or 20, 2 and 0.2 μM for […] concentrations of 100 μM preparations, respectively) were used, incubated for an hour and then were infected with the examined 0.1 ml/well viruses in doses 1, 10 and 100 TCID50 (50% tissue infectious dose).
(§14) The virus-specific cytogenic action was manifested in an increase in the size of cells, their rounding, and detachment from a substrate. These morphological characteristics served as their marked difference from the cells subjected to a toxic action of high concentrations of the examined preparations. The latter acquired spindle-like shape, lost contacts with neighboring cells of the monolayer, and their boundaries became more distinct.
(§15) Intensity of the virus-specific changes in the cells were semi-quantified using a 4-score system: 0—CPA (cytopathogenic action) is not detected; 1—up to 25% virus-infected monolayer; 2—from 25% to 50%; 3—from 50% to 75%; and 4—from 75% to 100%. The antiviral activity of a compound was evaluated according to their ability to reduce the manifestation of cytopathogenic action in the plate wells compared to the control values. Differences with the control values by 1 score and more were considered to be significant.
(Cytopathic effects are the visible damage that an infection or toxin causes in cultured cells.)

Assay [11] relates to Herpes Simplex Virus type 1 strain EC. The assay is described as above. More on the design: key: 0: CPA (cytopathogenic action) is not detected; 1: up to 25% virus-infected monolayer; from 25% to 50%; 3: from 50% to 75%; 4: from 75% to 100%. Conditions: 48 hours. The method, then:
as §11, §12, §13, §14, §15

As a reminder, the MIC is the lowest concentration found to suppress growth. For orientation: MBC means the lowest tested concentration that kills the bacteria rather than only halting them.

Take “6,7-bis-(Methyl Ester N^α—(N^G-Nitro)Arginyl)-Protohemin (IX) [III]”: the minimum inhibitory concentration (MIC) stood at 1.6 µM in assay [1] (MH medium, 20 h, 37° C., 100% growth inhibition); 12.5 µM in assay [2]; 25 µM in assay [3]; 25 µM in [4]. The molecule also returned an MBC in assay [1] (no colonies on agarized MH medium) of 6.3 µM.

Regarding “6,7-bis-[(Amide N^α-L-Arginyl)-L-Seryl]-Protohemin (IX) [XXIII]”, the MIC in assay [5], in assay [3], in assay [6], in assay [7], in [8] and in [4] was over 50.0 µM throughout. For the same molecule, the MIC (in the assay on Escherichia coli 4300; in assay [9]) was over 50.0 µM each time.

In the case of “6,7-bis-[(Amide N^α-L-Seryl)-L-Arginyl]-Protohemin (IX) [XX]”, the MIC is 1.3 µM in assay [5]; 3.12 µM in assay [3]; 1.56 µM in [6]; 0.65 µM in [7]; 6.25 µM in [8]; 1.3 µM in assay [4]. In addition, the MIC was over 50.0 µM in the assay with Escherichia coli 4300 and 1.56 µM in assay [9].

Take “6,7-bis-[(Diamide N^α-L-Seryl)-L-glutamyl]-Protohemin (IX) [XII]”: the “manifestation of the virus CPA” value in [10] (HSV-2, virus dose 1, concentration 0.1 μM) is reported as 0.5 scores; in assay [10] (HSV-2, virus dose 1, concentration 1 μM) it was 0.5 scores; in assay [10] (HSV-2, virus dose 1, concentration 10 μM) it was 0^1; in [10] (HSV-2, virus dose 10, concentration 0.1 μM), 2 (from 25% to 50%); in [10] (HSV-2, virus dose 10, concentration 1 μM), 1.5 scores; in assay [10] (HSV-2, virus dose 10, concentration 10 μM), 1^1 (up to 25% virus-infected monolayer). Moreover, the “manifestation of the virus CPA” value in assay [10] (HSV-2, virus dose 100, concentration 0.1 μM) is recorded as 3 (from 50% to 75%); in [10] (HSV-2, virus dose 100, concentration 1 μM), 3 (from 50% to 75%); in assay [10] (HSV-2, virus dose 100, concentration 10 μM), 3 (from 50% to 75%).

Turning to `Nc1nc2c(ncn2COCCO)c(=O)[nH]1` [Acyclovir, reference compound], the “manifestation of the virus CPA” value is given as 0^1 in [10] (HSV-2, virus dose 1, 10 μg/ml); 0^1 in [10] (HSV-2, virus dose 10, 10 μg/ml); 0^1 in assay [10] (HSV-2, virus dose 100, 10 μg/ml); 0^1 in [11] (HSV-1, virus dose 1, 10 μg/ml); 0^1 in assay [11] (HSV-1, virus dose 10, 10 μg/ml); 0^1 in assay [11] (HSV-1, virus dose 100, 10 μg/ml).
